This is an account of results in patent publication US20130273519A1, “COMPOSITION FOR TREATING BLOOD AND SET OF DIAGNOSTIC KIT COMPRISING THE SAME TO DETECT AUTOIMMUNE DISEASE” (priority 2012, published 2013).

The test system of this experiment is level of expression of MMP-3 in blood. Briefly: Level of expression of MMP-3 in blood stimulated with PMA, measured using flow cytometer (FACS). The class given is cell-based, human. Further details: unit not given here. To be noted: for level of expression of MMP-3, After: 500 ul whole blood, 90 ng PMA, 3 h + 6 h Brefeldin A; for level of expression of MMP-3, Total (After minus Before): PMA stimulation. The procedure:
In order to implement the method of stimulating blood and to check the clinical value of the kit of the present invention, the level of expression of MMP-3 was checked using a flow cytometer. 3 ml of blood was collected to sodium citrate tube (BD vacutainer), and CBC (complete blood count) was measured immediately upon pumping-up the blood. Then, the blood was stimulated with the chemical substance of the present invention. 500 ul of whole blood was put into the 24 wells plate for cell culture, and 90 ng of PMA was added into the plate. Then, the cell culture plate was put into a 5% CO2 incubator, and was kept at 37 for 3 hours. After 3 hours, 200 ug/ml of Brefeldin A(SIGMA) was added into the plate, and placed at 37 for 6 hours.
After lapse of the total 9 hours, 50 ul of blood was extracted, and put into 2 tubes respectively. Then, 10 ul of CD45-PC5 10 and 10 ul of CD14-FITC were respectively added to the 2 tubes, mixed with each other, and placed in a darkroom at room temperature for 15 min. Then, 100 ul of RBC lysis buffer (Bechman coulter) was added to the 2 tubes respectively, and mixed with each other using a vortex. The mixtures were placed in a darkroom at room temperature for 15 min. Then, 4 ml of PBS was added to the 2 tubes respectively, and centrifuged to remove the supernatant. Here, the supernatant was not removed using pipette, but poured out to minimize the loss of cells. 100 ul of 0.1% saponin was added to the remaining cells, and stirred smoothly using pipette. Then, the mixture was placed in a darkroom at room temperature for 5min. Then, 10 ul of IgG1-PE was added to the control group and 10 ul of MMP-3-PE was added to the comparative group, and then the both groups were placed in a darkroom for 15 min. After 15 min, 4 ml of PBS was added to the each group, and centrifuged under the condition of 2000 g, 5 min and 4 to remove the supernatant. Then, 500 ul of fresh PBS was added to the each group, and fluorescence-activated cell sorting (FACS) was performed.
A general note: Flow cytometry measures light scatter and fluorescence of single cells or particles in a stream.

[1] abbreviates: RA (R), patient with reduced activity after being treated with drugs.
The mark [2] stands for this setting: RA (S), patient with severe rheumatoid arthritis.
The mark [3] stands for this setting: RA (mi), patient with mild rheumatoid arthritis.

As for `CCCCCCCCCCCCCC(=O)O[C@@H]1[C@@H](C)[C@@]2(O)[C@@H](C=C(CO)C[C@]3(O)C(=O)C(C)=C[C@@H]23)[C@@H]2C(C)(C)[C@]12OC(C)=O` [PMA, Phorbol 12-myristate 13-acetate], the “level of expression of MMP-3, After” value by setting is: (Normal1 (normal person)) 39.23; (Normal2 (normal person)) 53.05; under setting [1], 48.35; under setting [2], 68.97; under setting [3], 63.65; (RA (s)) 64.53. The “level of expression of MMP-3, Total (After minus Before)” value (shortened to “level … (After minus Before)”) (Normal1 (normal person)) stood at 12.56; the “level … (After minus Before)” value (Normal2 (normal person)) is given as 11.49; the “level … (After minus Before)” value under setting [1] is 14.86; the “level … (After minus Before)” value under setting [2] turned out to be 43.64; the “level … (After minus Before)” value under setting [3] amounted to 27.52; the “level … (After minus Before)” value (RA (s)) turned out to be 26.12.
